Literature values in PMC2757550 (Bioconjugate chemistry, 2009).

System: mouse vas deferens preparation

Dmt-Tic-Glu-NH(CH2)5NH-fluorescein
removal from preparation by extensive washing (in words): cannot be removed from the mouse vas deferens preparation by extensive washing
